Experimental data taken from the NIST ThermoML archive (doi:10.1021/je700321s).

Test: xn = mol fraction of the nth substance listed
Conditions: Liquid, Vibrating tube method

CC(C)O [propan-2-ol] + O=C=O
Conditions | mass density [kg/m3]
333.02 K, 8305 kPa, x2 = 0.6086 | 754.3
333.02 K, 8394 kPa, x2 = 0.4248 | 773.2
333.02 K, 8400 kPa, x2 = 0.6086 | 754.8
333.02 K, 8504 kPa, x2 = 0.6086 | 755.5
333.02 K, 8610 kPa, x2 = 0.6086 | 756
333.02 K, 8701 kPa, x2 = 0.6086 | 756.6
333.02 K, 8802 kPa, x2 = 0.4248 | 774.1
333.02 K, 8802 kPa, x2 = 0.6086 | 757.3
333.02 K, 8900 kPa, x2 = 0.6086 | 757.9
333.02 K, 8916 kPa, x2 = 0.4248 | 774.5
333.02 K, 9000 kPa, x2 = 0.4248 | 774.7
333.02 K, 9005 kPa, x2 = 0.6086 | 758.5
333.02 K, 9100 kPa, x2 = 0.4248 | 775
333.02 K, 9103 kPa, x2 = 0.6086 | 759
333.02 K, 9205 kPa, x2 = 0.4248 | 775.3
333.02 K, 9304 kPa, x2 = 0.4248 | 775.6
333.02 K, 9410 kPa, x2 = 0.4248 | 775.8
333.02 K, 9506 kPa, x2 = 0.4248 | 776.1
333.02 K, 9607 kPa, x2 = 0.4248 | 776.4
333.02 K, 9809 kPa, x2 = 0.4248 | 776.8
333.05 K, 4210 kPa, x2 = 0.2003 | 763.4
333.05 K, 4492 kPa, x2 = 0.2003 | 763.8
333.05 K, 4799 kPa, x2 = 0.2003 | 764.3
333.05 K, 5001 kPa, x2 = 0.2003 | 764.6
333.05 K, 5470 kPa, x2 = 0.2003 | 765.3
333.05 K, 5996 kPa, x2 = 0.2003 | 766.1
333.05 K, 6511 kPa, x2 = 0.2003 | 766.9
333.05 K, 7008 kPa, x2 = 0.2003 | 767.7
333.05 K, 7519 kPa, x2 = 0.2003 | 768.4
333.05 K, 8008 kPa, x2 = 0.2003 | 769.2
333.05 K, 8503 kPa, x2 = 0.2003 | 769.9
333.05 K, 9019 kPa, x2 = 0.2003 | 770.6
333.05 K, 9506 kPa, x2 = 0.2003 | 771.3
333.05 K, 9994 kPa, x2 = 0.2003 | 772.1
347.93 K, 7801 kPa, x2 = 0.4248 | 744.8
347.93 K, 7908 kPa, x2 = 0.4248 | 745.1
347.93 K, 7999 kPa, x2 = 0.4248 | 745.5
347.93 K, 8130 kPa, x2 = 0.4248 | 745.9
347.93 K, 8239 kPa, x2 = 0.4248 | 746.2
347.93 K, 8408 kPa, x2 = 0.4248 | 746.8
347.93 K, 8501 kPa, x2 = 0.4248 | 747.2
347.93 K, 8600 kPa, x2 = 0.4248 | 747.4
347.93 K, 8712 kPa, x2 = 0.4248 | 747.8
347.93 K, 8801 kPa, x2 = 0.4248 | 748.2
347.93 K, 8890 kPa, x2 = 0.4248 | 748.4
347.93 K, 9033 kPa, x2 = 0.4248 | 748.8
347.93 K, 9105 kPa, x2 = 0.4248 | 749.1
347.93 K, 9244 kPa, x2 = 0.4248 | 749.4
347.93 K, 9410 kPa, x2 = 0.4248 | 750
347.93 K, 9501 kPa, x2 = 0.4248 | 750.2
347.93 K, 9608 kPa, x2 = 0.4248 | 750.7
347.94 K, 9809 kPa, x2 = 0.6086 | 716
347.94 K, 9815 kPa, x2 = 0.6086 | 717
347.94 K, 9822 kPa, x2 = 0.6086 | 718.1
347.94 K, 9831 kPa, x2 = 0.6086 | 719.1
347.94 K, 9840 kPa, x2 = 0.6086 | 719.7
347.94 K, 9850 kPa, x2 = 0.6086 | 720
347.94 K, 9861 kPa, x2 = 0.6086 | 720
347.94 K, 9873 kPa, x2 = 0.6086 | 720.2
347.94 K, 9885 kPa, x2 = 0.6086 | 720.2
347.94 K, 9897 kPa, x2 = 0.6086 | 720.3
347.94 K, 9910 kPa, x2 = 0.6086 | 720.4
347.94 K, 9949 kPa, x2 = 0.6086 | 720.8
347.94 K, 10004 kPa, x2 = 0.6086 | 721.1
347.94 K, 10052 kPa, x2 = 0.6086 | 721.5
347.94 K, 10104 kPa, x2 = 0.6086 | 721.9
347.94 K, 10152 kPa, x2 = 0.6086 | 722.2
347.95 K, 3317 kPa, x2 = 0.139 | 742.5
347.95 K, 3516 kPa, x2 = 0.139 | 742.7
347.95 K, 4002 kPa, x2 = 0.139 | 743.5
347.95 K, 4464 kPa, x2 = 0.139 | 744.3
347.95 K, 5008 kPa, x2 = 0.139 | 745.1
347.95 K, 5502 kPa, x2 = 0.139 | 745.9
347.95 K, 6011 kPa, x2 = 0.139 | 746.7
347.95 K, 6501 kPa, x2 = 0.139 | 747.5
347.95 K, 7037 kPa, x2 = 0.139 | 748.3
347.95 K, 7523 kPa, x2 = 0.139 | 749.1
347.95 K, 8023 kPa, x2 = 0.139 | 749.8
347.95 K, 8497 kPa, x2 = 0.139 | 750.5
347.95 K, 8993 kPa, x2 = 0.139 | 751.3
347.95 K, 9568 kPa, x2 = 0.139 | 752.1
347.95 K, 10032 kPa, x2 = 0.139 | 752.8
347.95 K, 11400 kPa, x2 = 0.7943 | 647.2
347.95 K, 11604 kPa, x2 = 0.7943 | 653.3
347.95 K, 11812 kPa, x2 = 0.7943 | 658.7
347.95 K, 12007 kPa, x2 = 0.7943 | 663
347.95 K, 12201 kPa, x2 = 0.7943 | 666.8
347.95 K, 12502 kPa, x2 = 0.7943 | 672.6
347.95 K, 12802 kPa, x2 = 0.7943 | 677.6
347.95 K, 13202 kPa, x2 = 0.7943 | 684
347.95 K, 13504 kPa, x2 = 0.7943 | 688.5
347.95 K, 13802 kPa, x2 = 0.7943 | 692.8
347.95 K, 14109 kPa, x2 = 0.7943 | 696.9
347.95 K, 14406 kPa, x2 = 0.7943 | 700.5
347.95 K, 14703 kPa, x2 = 0.7943 | 703.9
347.95 K, 15000 kPa, x2 = 0.7943 | 707.4
347.95 K, 15207 kPa, x2 = 0.7943 | 709.6
347.95 K, 15407 kPa, x2 = 0.7943 | 711.9
347.95 K, 15610 kPa, x2 = 0.7943 | 714
347.95 K, 15813 kPa, x2 = 0.7943 | 716.1
347.95 K, 16004 kPa, x2 = 0.7943 | 717.9
347.95 K, 16303 kPa, x2 = 0.7943 | 720.7
347.95 K, 16501 kPa, x2 = 0.7943 | 722.4
347.95 K, 16808 kPa, x2 = 0.7943 | 725
347.96 K, 10989 kPa, x2 = 0.9492 | 348.5
347.96 K, 11505 kPa, x2 = 0.9492 | 382.4
347.96 K, 12004 kPa, x2 = 0.9492 | 415.7
347.96 K, 12507 kPa, x2 = 0.9492 | 448.4
347.96 K, 13000 kPa, x2 = 0.9492 | 477.1
347.96 K, 13503 kPa, x2 = 0.9492 | 503
347.96 K, 14006 kPa, x2 = 0.9492 | 527.8
347.96 K, 14511 kPa, x2 = 0.9492 | 550.1
347.96 K, 15011 kPa, x2 = 0.9492 | 569.6
347.96 K, 15495 kPa, x2 = 0.9492 | 586.6
347.96 K, 15997 kPa, x2 = 0.9492 | 602.4
347.96 K, 16514 kPa, x2 = 0.9492 | 617
347.96 K, 17014 kPa, x2 = 0.9492 | 629.5
347.96 K, 17513 kPa, x2 = 0.9492 | 640.4
347.96 K, 17988 kPa, x2 = 0.9492 | 648.6
347.97 K, 5098 kPa, x2 = 0.2003 | 745.6
347.97 K, 5302 kPa, x2 = 0.2003 | 746.1
347.97 K, 5533 kPa, x2 = 0.2003 | 746.5
347.97 K, 6025 kPa, x2 = 0.2003 | 747.4
347.97 K, 6609 kPa, x2 = 0.2003 | 748.4
347.97 K, 7005 kPa, x2 = 0.2003 | 749.2
347.97 K, 7508 kPa, x2 = 0.2003 | 750.1
347.97 K, 8010 kPa, x2 = 0.2003 | 751
347.97 K, 8501 kPa, x2 = 0.2003 | 751.7
347.97 K, 8915 kPa, x2 = 0.2003 | 752.4
347.97 K, 9581 kPa, x2 = 0.2003 | 753.5
347.97 K, 9706 kPa, x2 = 0.2003 | 753.7
347.97 K, 10014 kPa, x2 = 0.2003 | 754.2
